The text below walks through data of ChEMBL document CHEMBL1147972, “1,3-disubstituted 4-aminopiperidines as useful tools in the optimization of the 2-aminobenzo[a]quinolizine dipeptidyl peptidase IV inhibitors” (Bioorg Med Chem Lett, 2007).

For series [1], the system named is Liver microsomes. The series is described as follows: Clearance in rat liver microsome. Format: ADME.
For series [2], the system named is Liver microsomes. The experiment in a line: Clearance in human liver microsome. Format: ADME.
The nature of series [3]: Solubility of the compound. Format: physicochemical.
Series [4] is described as follows: Permeability coefficient across PAMPA. Format: ADME. The conditions noted are these: read-out: permeability.
The target in the next series is Cytochrome P450 2C9 (Homo sapiens, UniProt P11712). The experiment in a line: Inhibition of CYP2C9. Format: ADME.
Cytochrome P450 2C9, sequence (P11712 whole entry): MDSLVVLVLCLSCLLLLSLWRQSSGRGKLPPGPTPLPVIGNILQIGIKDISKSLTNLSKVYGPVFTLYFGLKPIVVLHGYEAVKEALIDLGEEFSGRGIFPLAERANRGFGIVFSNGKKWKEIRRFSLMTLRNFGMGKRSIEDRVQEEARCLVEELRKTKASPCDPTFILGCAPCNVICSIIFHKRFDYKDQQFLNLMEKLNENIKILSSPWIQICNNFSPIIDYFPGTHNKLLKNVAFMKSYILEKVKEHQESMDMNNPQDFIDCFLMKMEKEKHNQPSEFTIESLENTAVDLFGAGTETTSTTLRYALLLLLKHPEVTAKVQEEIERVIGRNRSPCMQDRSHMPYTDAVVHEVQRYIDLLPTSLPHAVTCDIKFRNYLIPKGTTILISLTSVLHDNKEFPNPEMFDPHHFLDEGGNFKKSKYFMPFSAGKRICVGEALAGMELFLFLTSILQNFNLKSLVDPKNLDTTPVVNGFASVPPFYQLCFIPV
The target in a further series is Cytochrome P450 2D6 (Homo sapiens, UniProt P10635). The experiment in a line: Inhibition of CYP2D6. Format: ADME.
Cytochrome P450 2D6, sequence (P10635 whole entry): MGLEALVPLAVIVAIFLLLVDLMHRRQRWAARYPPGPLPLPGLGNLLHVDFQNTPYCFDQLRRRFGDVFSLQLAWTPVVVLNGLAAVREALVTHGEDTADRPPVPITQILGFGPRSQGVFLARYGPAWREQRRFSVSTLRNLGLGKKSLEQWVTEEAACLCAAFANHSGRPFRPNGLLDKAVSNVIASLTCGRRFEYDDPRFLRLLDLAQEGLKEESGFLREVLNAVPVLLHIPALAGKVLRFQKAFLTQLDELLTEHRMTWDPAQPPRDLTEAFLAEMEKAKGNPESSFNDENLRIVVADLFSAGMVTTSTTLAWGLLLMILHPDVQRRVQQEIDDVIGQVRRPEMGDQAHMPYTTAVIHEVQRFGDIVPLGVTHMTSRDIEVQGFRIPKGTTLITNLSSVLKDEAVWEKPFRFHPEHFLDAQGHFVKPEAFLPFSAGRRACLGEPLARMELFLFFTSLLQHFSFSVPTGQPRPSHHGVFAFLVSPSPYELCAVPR
A further series concerns Rattus norvegicus. The experiment in a line: Reduction in glucose level in fa/fa rat after oral glucose tolerance test at 0.3 mg/kg administered 2 hrs before glucose challenge. Format: functional. Set-up: scale not given: the % may be the effect or the level left.
The nature of series [5]: Distribution coefficient, log D at pH 7.4. Format: physicochemical. The conditions noted are these: octanol/water.
A further series deals with Cytochrome P450 3A4 (Homo sapiens, UniProt P08684). The series is described as follows: Inhibition of CYP3A4. Format: ADME.
Cytochrome P450 3A4, sequence (P08684 whole entry): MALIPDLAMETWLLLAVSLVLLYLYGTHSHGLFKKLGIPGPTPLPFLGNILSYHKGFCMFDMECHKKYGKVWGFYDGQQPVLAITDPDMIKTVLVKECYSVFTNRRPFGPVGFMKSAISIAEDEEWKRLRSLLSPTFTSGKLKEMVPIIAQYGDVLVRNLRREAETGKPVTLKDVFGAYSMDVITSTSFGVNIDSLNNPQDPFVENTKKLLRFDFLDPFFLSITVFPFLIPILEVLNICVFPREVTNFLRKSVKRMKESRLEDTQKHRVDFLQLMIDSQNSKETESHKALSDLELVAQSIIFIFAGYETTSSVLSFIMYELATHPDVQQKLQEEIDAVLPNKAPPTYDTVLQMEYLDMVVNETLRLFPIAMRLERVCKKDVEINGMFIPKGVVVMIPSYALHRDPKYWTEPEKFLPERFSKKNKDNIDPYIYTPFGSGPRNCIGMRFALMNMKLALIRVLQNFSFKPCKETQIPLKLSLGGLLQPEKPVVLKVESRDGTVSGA

pIC50: −log10 of the molar value. Where only a bound is given, the exact number is not on record here.

As for `CCCC[C@H]1CN2CCc3cc(OC)c(OC)cc3[C@@H]2C[C@@H]1N`, the clearance worked out at 4.7 µL/min/mg in the series on Liver microsomes [1] and 0 µL/min/mg in the series with Liver microsomes [2]. For the same compound, the Solubility in [3] is greater than 414 µg/mL. Moreover, the Papp in series [4] was found to be 2.5 ×10⁻⁶ cm/s. Also, the negative logarithm of the IC50 (pIC50) against Cytochrome P450 2C9, on Cytochrome P450 2D6 and at Cytochrome P450 3A4 was less than 4.30 in each case. In addition, in the series on Rattus norvegicus, the Activity was -16%. Besides, the logD in [5] was found to be 0.8.

For `COc1cc2c(cc1OC)[C@@H]1C[C@H](N)[C@@H](c3cccc(C)c3)CN1CC2`, the figures for the clearance in the series with Liver microsomes [1] and in the series with Liver microsomes [2] were 1 µL/min/mg and 3 µL/min/mg, respectively. The Solubility in [3] is greater than 469 µg/mL. For the same compound, the Papp in [4] turned out to be 3.4 ×10⁻⁶ cm/s. The pIC50 on Cytochrome P450 2C9 was 4.82; against Cytochrome P450 2D6, 4.96; against Cytochrome P450 3A4, less than 4.30. For the same compound, the Activity with Rattus norvegicus is given as -41%. The pH-dependent lipophilicity (logD) in series [5] was 1.3.
